The term IC50 denotes the concentration that gives 50% inhibition.

The structures appear in SMILES notation. Read-outs that look alike come from different tables or passages of the source.

The values below come from publication PMC4006925, “Squalene Synthase As a Target for Chagas Disease Therapeutics” (PLoS Pathogens, 2014).

Assay [1] concerns T. cruzi epimastigotes. Description: UQ9 biosynthesis in epimastigotes, LC-MS. The class given is cell-based, Trypanosoma cruzi. As to the method:
For ubiquinone extraction, epimastigotes (1 g wet weight) were washed twice with buffer A with glucose (116 mM NaCl, 5.4 mM KCl, 0.8 mM MgSO4, 5.5 mM D-glucose, and 50 mM HEPES at pH 7.0). To break the cells, the pellets were frozen in a dry ice-100% ethanol bath (for 7 min) and thawed at 37°C (for 3 min) for a total of 5 times. One volume of water and three volumes of 1-propanol were added to the pellet. The samples were vortexed for 30 sec at room temperature and allowed to stand for one minute. Two volumes of n-hexane were added, the mixture vortexed for 30 sec at room temperature, then centrifuged at 12,000× g for 5 min. The upper phase, containing ubiquinone, was collected into a glass tube, and dried under nitrogen gas, then analyzed using LC-MS.
LC/MS was performed using an Agilent LC/MSD Trap XCT Plus system (Agilent Technologies, Santa Clara, CA) with an 1100 series HPLC system including a degasser, an auto-sampler, a binary pump, and a multiple-wavelength detector. The LC separation used a Phenomenex Gemini 3u C18 110A column (2 mm×100 mm) (Torrence, CA) with mobile phase A (0.1% formic acid in water) and mobile phase B (0.1% formic acid in acetonitrile). The flow-rate was 0.25 mL/min. The linear gradient was as follows: 0–1 min, 100% A; 7–50 min, 0% A; 51–56 min, 100% A. The auto-sampler was set at 5°C and the injection volume was 15 µL. UV signals were recorded at 275 nm. […]

The subject of the next assay is T. cruzi. Description: Rescue from T. cruzi cell growth inhibition by farnesol or geranylgeraniol. It counts as cell-based, Trypanosoma cruzi.
For assay [2], the system named is T. cruzi epimastigotes. Description: Sterol composition of T. cruzi epimastigotes, GC-MS. It counts as cell-based, Trypanosoma cruzi. The settings on record: 4 µM compound. How it is done:
. Cells from cultures (96 h incubation) were washed with Buffer A with glucose (116 mM NaCl, 5.4 mM KCl, 0.8 mM MgSO4, 5.5 mM D-glucose, and 50 mM HEPES at pH 7.0) then pelleted and chloroform/methanol (2∶1 v/v) added (∼30 mL of solvent per gram of wet cells) followed by vigorous stirring and overnight incubation at 4°C. The extract was then filtered using Whatman #2 paper to eliminate insoluble material, and the filtrate (a single phase) dried under nitrogen. The extract was then re-extracted using chloroform/methanol 9/1 v/v, dried under nitrogen, dissolved in 1 mL of pure chloroform and re-dried under nitrogen gas. The extracted lipids were saponified with 5 mL of ethanolic-potassium hydroxide (5 g KOH, 7 mL water, 14 mL ethanol) for 1 hour at 80°C. After cooling, 2.5 mL of water and 1.5 mL hexane were added and the phases allowed to separate. […] Samples were analyzed on a 30 m DB5 column with 0.32 mm I.D. and 0.25 µm film thickness (Agilent Inc, Palo Alto, CA, USA) with an injection port temperature of 300°C, the interface was set to 300°C, the ion source adjusted to 230°C, MS Quadrupole 150°C. […] The spectra of all chromatogram peaks were evaluated by using the HP Chemstation (Agilent, Palo Alto, CA, USA) program. Identifications and quantifications were performed using mass spectra obtained from authentic standards and with NIST08 and W8N08 libraries (John Wiley & Sons, Inc., USA).

For another assay, the system named is Vero cells. Put plainly: Vero (host) cell proliferation, alamarBlue. It counts as cell-based. As to conditions: read-out: IC50 Vero cells (host cell growth). How it is done: Vero cells (1.7×10^4 cells/well) were seeded in 96 well plates (black, clear bottom from Greiner Bio-One Cat#655090) in 100 µL RPMI media (Sigma Cat# R-4130) with 10% FBS. Plates were tested as described by Recher et al.
Background: The colour change of resazurin is a common sign of viable cells or microbes.

Another assay addresses TcSQS (Trypanosoma cruzi, UniProt Q4CWB4). Put plainly: biochemical. It counts as biochemical. How it is done: (§1) Initial SQS enzyme inhibition assays were carried out, in duplicate, in 96-well plates, with a total of 200 µL of reaction mixture in each well. Reactions were monitored by using a continuous spectrophotometric assay for phosphate releasing enzymes. […] The compounds investigated were pre-incubated with 2 µg of SQS for 30 min at 20°C. The IC50 values were obtained by fitting the inhibition data to a normal dose–response curve, using GraphPad PRISM, version 4.0, software for Windows (GraphPad Software Inc., San Diego, CA, www.graphpad.com). We then verified the results by using a radioactivity assay using ^3H-labelled FPP as substrate. […] The enzymes were incubated with inhibitor for 10 minutes before addition of the substrates. The reaction was allowed to continue at 37°C for 15 minutes and then terminated with 50 µL of 0.1 M NaOH/methanol. The product was extracted with 500 µL of hexanes and 300 µL of the organic layer was measured by scintillation counting.

In another assay the test system is T. cruzi amastigotes. Put plainly: T. cruzi amastigote cell growth inhibition in Vero cells. The class given is cell-based, Trypanosoma cruzi. As to conditions: means ± SD from 2 or 3 independent experiments, day 3 post-infection. As to the method:
Gamma-irradiated (2,000 Rads) Vero cells (3.4×10^4 cells/well) were seeded in 96 well plates (black, clear bottom plates from Greiner Bio-One) in 100 µL RPMI media (Sigma) with 10% FBS. Plates were incubated overnight at 35°C and 7% CO2. […] After infection, cells were washed once with Hanks solution (150 µL/well) to eliminate any extracellular parasites, and compounds were added in serial dilutions in RPMI media in 150 µL volumes. Each dilution was tested in quadruplicate. Each plate also contained controls with host cells and no parasites (for a background check), and controls with parasites and no drugs (positive control). […] For each set of experiments, benznidazole was used as a positive control. After drug addition, plates were incubated at 35°C and 7% CO2. At day 3 post-infection, plates were assayed for fluorescence and IC50 values were determined by non-linear regression analysis using SigmaPlot.

Another assay addresses T1, TcFPPS (Trypanosoma cruzi, UniProt Q95WL3).
T1 sequence (Q95WL3 1-362): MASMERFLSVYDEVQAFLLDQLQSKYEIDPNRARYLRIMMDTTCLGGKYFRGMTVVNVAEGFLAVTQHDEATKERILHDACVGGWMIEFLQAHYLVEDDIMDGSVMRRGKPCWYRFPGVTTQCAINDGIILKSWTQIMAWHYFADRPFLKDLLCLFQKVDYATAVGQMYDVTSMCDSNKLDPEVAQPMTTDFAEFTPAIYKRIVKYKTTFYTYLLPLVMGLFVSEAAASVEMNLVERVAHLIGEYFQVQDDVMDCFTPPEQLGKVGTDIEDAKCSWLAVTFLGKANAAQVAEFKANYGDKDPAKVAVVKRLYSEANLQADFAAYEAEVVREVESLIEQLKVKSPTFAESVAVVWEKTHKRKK
Description: T. cruzi FPPS inhibition. It counts as biochemical. As to the method: For FPPS inhibition we used the methods described previously. The condensation of geranyl diphosphate (100 µM) and isopentenyl diphosphate (100 µM) was monitored at room temperature by using a continuous spectrophotometric assay for phosphate releasing enzymes. The reaction buffer contained 50 mM Tris-HCl, pH 7.4, 1 mM MgCl2, and 0.01% Triton X100. The compounds investigated were pre-incubated with enzyme for 30 min at room temperature. The IC50 values were obtained from fitting dose-response curve using Prism 4.0 (GraphPad Software, Inc., La Jolla, CA, www.graphpad.com).

For assay [3], the target named is T2, HsSQS (Homo sapiens, UniProt P37268).
T2 construct: His-tag; made in house
T2 sequence (P37268 1-417): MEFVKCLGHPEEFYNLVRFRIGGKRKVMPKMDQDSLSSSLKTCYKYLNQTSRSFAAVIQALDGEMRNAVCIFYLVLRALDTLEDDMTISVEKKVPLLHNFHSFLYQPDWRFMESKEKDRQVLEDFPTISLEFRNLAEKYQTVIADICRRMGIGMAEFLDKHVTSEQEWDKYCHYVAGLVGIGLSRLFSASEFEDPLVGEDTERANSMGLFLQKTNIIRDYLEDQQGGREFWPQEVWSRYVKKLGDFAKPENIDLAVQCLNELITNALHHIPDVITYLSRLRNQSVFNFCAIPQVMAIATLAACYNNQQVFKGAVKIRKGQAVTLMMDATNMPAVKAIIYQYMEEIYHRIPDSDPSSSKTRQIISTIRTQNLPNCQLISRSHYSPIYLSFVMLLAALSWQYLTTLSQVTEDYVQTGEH
Put plainly: Human squalene synthase inhibition. It counts as biochemical. How it is done: as §1

For another assay, the system named is LmSQS. The arrangement: method as in PMID 18765694. As to conditions: cited from earlier work.
The target of assay [4] is T2, HsSQS. The arrangement: method as in PMID 1464749. The settings on record: cited from earlier work.

Chain of TcSQS (Q4CWB4 entry or part of it): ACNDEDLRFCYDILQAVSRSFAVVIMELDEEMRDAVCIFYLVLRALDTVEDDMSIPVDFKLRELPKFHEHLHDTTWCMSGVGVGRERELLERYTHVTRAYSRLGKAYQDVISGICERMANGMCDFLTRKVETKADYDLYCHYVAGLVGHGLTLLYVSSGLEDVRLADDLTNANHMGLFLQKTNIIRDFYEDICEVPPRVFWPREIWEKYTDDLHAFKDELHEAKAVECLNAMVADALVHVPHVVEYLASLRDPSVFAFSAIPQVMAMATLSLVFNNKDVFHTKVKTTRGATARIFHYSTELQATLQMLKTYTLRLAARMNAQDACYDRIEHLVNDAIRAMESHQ

With `CCCCCCCCCC[n+]1ccn(CC(P(=O)([O-])O)P(=O)(O)O)c1` (stereo not drawn) [BPH-1218], the “decrease in UQ9 biosynthesis” value in the assay on T. cruzi epimastigotes [1] is recorded as around 40%. Moreover, in the assay on T. cruzi, the “rescue afforded by farnesol” value is recorded as “no “rescue””. The molecule further registered a rescue by geranylgeraniol in the assay with T. cruzi (geranylgeraniol at 40 µM) of around 20%. Also, in the assay on T. cruzi epimastigotes [2] (without compound 36%), the “endogenous ergosterol and the three major ergosterol related sterols, % of total sterols” value is recorded as 15%. Further, in the assay with T. cruzi epimastigotes [2] (without compound 51%), the “content of exogeneously-acquired cholesterol, % of total sterols” value is reported as 71%. Also, the IC50 in the assay on Vero cells (Chlorocebus sabaeus, Vero) is around 1 mM.

Turning to `CCCCCCCCCCC[n+]1ccn(CC(P(=O)([O-])O)P(=O)(O)O)c1` (stereo not drawn) [BPH-1328], the IC50 at TcSQS is 0.01 µM; in the assay with T. cruzi amastigotes, 4 ± 1.3 µM; against TcFPPS, 0.39 µM; at HsSQS [3] it was 0.11 µM; in the assay on Vero cells (in mM) it was around 1 mM.

Turning to `CCCCCCCCCCCCC[n+]1ccn(CC(P(=O)([O-])O)P(=O)(O)O)c1` (stereo not drawn) [BPH-1329], the IC50 against TcSQS is 0.058 µM; in the assay with T. cruzi amastigotes, 1.1 ± 0.1 µM; at TcFPPS, 0.91 µM; at HsSQS [3], 0.22 µM; in the assay with Vero cells (in mM), around 1 mM.

As to `CCCCCCCCCCCCCC[n+]1ccn(CC(O)(P(=O)([O-])O)P(=O)(O)O)c1` (stereo not drawn) [BPH-1338], the IC50 against TcSQS is 0.12 µM; in the assay on T. cruzi amastigotes, 1.2 ± 0.1 µM; on TcFPPS, above 5 µM; at HsSQS [3], 0.24 µM; in the assay with Vero cells, 0.051 ± 0.01 mM.

Take `CCCCCCCCCCCCCCCn1cc[n+](CC(P(=O)([O-])O)P(=O)(O)O)c1` (stereo not drawn) [BPH-1344]: the IC50 was 0.14 µM at TcSQS; 1 ± 0.1 µM in the assay with T. cruzi amastigotes (Trypanosoma cruzi, Vero, 72 h); above 5 µM against TcFPPS; 0.26 µM at HsSQS [3]; around 1 mM in the assay with Vero cells (Chlorocebus sabaeus, Vero).

With `CO[C@H]1CN(c2ccc(C#C[C@@]3(O)CN4CCC3CC4)c(Cc3ccccc3)n2)C[C@H]1O` [E5700], in the assay with LmSQS, the “inhibition of LmSQS” value is recorded as “nanomolar/sub-nanomolar range”.

Consider `COCCCOc1ccc(C#C[C@@]2(O)CN3CCC2CC3)c(Cc2ccccc2)n1` [ER119884], for which the “inhibition of LmSQS” value in the assay with LmSQS was “nanomolar/sub-nanomolar range”.

Take `CCCCCN(C)CCC(O)(P(=O)(O)O)P(=O)(O)O` [ibandronate]: the “K i values, human SQS” value on HsSQS [4] was “low nM”.

`O=P(O)(O)C(NC1CCCCCC1)P(=O)(O)O` [incadronate]: the “K i values, human SQS” value at HsSQS [4] is recorded as “low nM”.
